{"source": "PubChem BioAssay AID1259407", "about": "(Chemical Carcinogenesis Research Information System (CCRIS), 2018)", "system": "CCRIS mutagenicity, Ames/micronucleus/aberration tests", "experiment": "CCRIS mutagenicity studies", "key": {"[1]": {"conditions": "Test System: AMES SALMONELLA TYPHIMURIUM, Strain/Indicator: TA100, Metabolic Activation: NONE, Method: STANDARD PLATE"}, "[2]": {"conditions": "Test System: AMES SALMONELLA TYPHIMURIUM, Strain/Indicator: TA98, Metabolic Activation: NONE, Method: PREINCUBATION"}, "[3]": {"conditions": "Test System: AMES SALMONELLA TYPHIMURIUM, Strain/Indicator: TA100, Metabolic Activation: NONE, Method: PREINCUBATION"}}, "note": "Activity calls are given as the source filed them. No rule for the calls is given here."}
{"compound": "Nc1ccc2ccccc2c1N=Nc1ccccc1", "values": [{"measurement": "mutagenic call", "setting": "Test System: AMES SALMONELLA TYPHIMURIUM, Strain/Indicator: TA98, Metabolic Activation: HAMSTER, LIVER, S-9, AROCLOR 1254 (2.5-20%), Method: PREINCUBATION", "result": "inactive; negative"}, {"measurement": "mutagenic call", "setting": "Test System: AMES SALMONELLA TYPHIMURIUM, Strain/Indicator: TA98, Metabolic Activation: HAMSTER, LIVER, S-9, AROCLOR 1254, Method: STANDARD PLATE", "result": "inactive; negative"}, {"measurement": "mutagenic call", "setting": "Test System: AMES SALMONELLA TYPHIMURIUM, Strain/Indicator: TA98, Metabolic Activation: NONE, Method: STANDARD PLATE", "result": "inactive; negative"}, {"measurement": "mutagenic call", "setting": "Test System: AMES SALMONELLA TYPHIMURIUM, Strain/Indicator: TA98, Metabolic Activation: RAT, LIVER, S-9, AROCLOR 1254, Method: STANDARD PLATE", "result": "inactive; negative"}, {"measurement": "mutagenic call", "setting": "Test System: AMES SALMONELLA TYPHIMURIUM, Strain/Indicator: TA100, Metabolic Activation: HAMSTER, LIVER, S-9, AROCLOR 1254 (2.5-20%), Method: PREINCUBATION", "result": "inactive; negative"}, {"measurement": "mutagenic call", "setting": "Test System: AMES SALMONELLA TYPHIMURIUM, Strain/Indicator: TA100, Metabolic Activation: HAMSTER, LIVER, S-9, AROCLOR 1254, Method: STANDARD PLATE", "result": "inactive; negative"}, {"measurement": "mutagenic call", "setting": "[1]", "result": "inactive; negative"}, {"measurement": "mutagenic call", "setting": "Test System: AMES SALMONELLA TYPHIMURIUM, Strain/Indicator: TA100, Metabolic Activation: RAT, LIVER, S-9, AROCLOR 1254, Method: STANDARD PLATE", "result": "inactive; negative"}, {"measurement": "mutagenic call", "setting": "Test System: AMES SALMONELLA TYPHIMURIUM, Strain/Indicator: TA102, Metabolic Activation: HAMSTER, LIVER, S-9, AROCLOR 1254 (10%), Method: PREINCUBATION", "result": "inactive; negative"}, {"measurement": "mutagenic call", "setting": "Test System: AMES SALMONELLA TYPHIMURIUM, Strain/Indicator: TA102, Metabolic Activation: NONE, Method: PREINCUBATION", "result": "inactive; negative"}, {"measurement": "mutagenic call", "setting": "Test System: AMES SALMONELLA TYPHIMURIUM, Strain/Indicator: TA102, Metabolic Activation: RAT, LIVER, S-9, AROCLOR 1254 (10%), Method: PREINCUBATION", "result": "inactive; negative"}, {"measurement": "mutagenic call", "setting": "Test System: AMES SALMONELLA TYPHIMURIUM, Strain/Indicator: TA1535, Metabolic Activation: HAMSTER, LIVER, S-9, AROCLOR 1254, Method: STANDARD PLATE", "result": "inactive; negative"}, {"measurement": "mutagenic call", "setting": "Test System: AMES SALMONELLA TYPHIMURIUM, Strain/Indicator: TA1535, Metabolic Activation: NONE, Method: STANDARD PLATE", "result": "inactive; negative"}, {"measurement": "mutagenic call", "setting": "Test System: AMES SALMONELLA TYPHIMURIUM, Strain/Indicator: TA1535, Metabolic Activation: RAT, LIVER, S-9, AROCLOR 1254, Method: STANDARD PLATE", "result": "inactive; negative"}, {"measurement": "mutagenic call", "setting": "Test System: AMES SALMONELLA TYPHIMURIUM, Strain/Indicator: TA1537, Metabolic Activation: HAMSTER, LIVER, S-9, AROCLOR 1254, Method: STANDARD PLATE", "result": "inactive; negative"}, {"measurement": "mutagenic call", "setting": "Test System: AMES SALMONELLA TYPHIMURIUM, Strain/Indicator: TA1537, Metabolic Activation: NONE, Method: STANDARD PLATE", "result": "inactive; negative"}, {"measurement": "mutagenic call", "setting": "Test System: AMES SALMONELLA TYPHIMURIUM, Strain/Indicator: TA1537, Metabolic Activation: RAT, LIVER, S-9, AROCLOR 1254, Method: STANDARD PLATE", "result": "inactive; negative"}, {"measurement": "mutagenic call", "setting": "Test System: AMES SALMONELLA TYPHIMURIUM, Strain/Indicator: TA1538, Metabolic Activation: HAMSTER, LIVER, S-9, AROCLOR 1254, Method: STANDARD PLATE", "result": "inactive; negative"}, {"measurement": "mutagenic call", "setting": "Test System: AMES SALMONELLA TYPHIMURIUM, Strain/Indicator: TA1538, Metabolic Activation: NONE, Method: STANDARD PLATE", "result": "inactive; negative"}, {"measurement": "mutagenic call", "setting": "Test System: AMES SALMONELLA TYPHIMURIUM, Strain/Indicator: TA1538, Metabolic Activation: RAT, LIVER, S-9, AROCLOR 1254, Method: STANDARD PLATE", "result": "inactive; negative"}, {"measurement": "mutagenic call", "setting": "Test System: MOUSE LYMPHOMA, Strain/Indicator: L5178Y (TK+/TK-), Metabolic Activation: NONE, Method: SUSPENSION/PLATE", "result": "active; positive. reevaluation of results: equivocal"}]}
{"compound": "O=S(=O)(O)c1ccc(N=Nc2c(O)c(S(=O)(=O)O)cc3cc(S(=O)(=O)O)ccc23)cc1", "values": [{"measurement": "mutagenic call", "setting": "[2]", "result": "inactive; negative"}, {"measurement": "mutagenic call", "setting": "Test System: AMES SALMONELLA TYPHIMURIUM, Strain/Indicator: TA98, Metabolic Activation: RAT, LIVER, S-9, PHENOBARBITAL, Method: PREINCUBATION", "result": "inactive; negative"}, {"measurement": "mutagenic call", "setting": "[3]", "result": "inactive; negative"}, {"measurement": "mutagenic call", "setting": "Test System: AMES SALMONELLA TYPHIMURIUM, Strain/Indicator: TA100, Metabolic Activation: RAT, LIVER, S-9, PHENOBARBITAL, Method: PREINCUBATION", "result": "inactive; negative"}]}
{"compound": "NCCCNCCCN", "values": [{"measurement": "mutagenic call", "setting": "Test System: AMES SALMONELLA TYPHIMURIUM, Strain/Indicator: TA98, Metabolic Activation: HAMSTER, LIVER, S-9, AROCLOR 1254 (10%), Method: PREINCUBATION", "result": "inactive; negative"}, {"measurement": "mutagenic call", "setting": "[2]", "result": "inactive; negative"}, {"measurement": "mutagenic call", "setting": "Test System: AMES SALMONELLA TYPHIMURIUM, Strain/Indicator: TA98, Metabolic Activation: RAT, LIVER, S-9, AROCLOR 1254 (10%), Method: PREINCUBATION", "result": "inactive; negative"}, {"measurement": "mutagenic call", "setting": "Test System: AMES SALMONELLA TYPHIMURIUM, Strain/Indicator: TA98, Metabolic Activation: RAT, LIVER, S-9, PCB, Method: PREINCUBATION", "result": "inactive; negative"}, {"measurement": "mutagenic call", "setting": "Test System: AMES SALMONELLA TYPHIMURIUM, Strain/Indicator: TA100, Metabolic Activation: HAMSTER, LIVER, S-9, AROCLOR 1254 (10%), Method: PREINCUBATION", "result": "inactive; negative"}, {"measurement": "mutagenic call", "setting": "[3]", "result": "inactive; negative"}, {"measurement": "mutagenic call", "setting": "Test System: AMES SALMONELLA TYPHIMURIUM, Strain/Indicator: TA100, Metabolic Activation: RAT, LIVER, S-9, AROCLOR 1254 (10%), Method: PREINCUBATION", "result": "inactive; negative"}, {"measurement": "mutagenic call", "setting": "Test System: AMES SALMONELLA TYPHIMURIUM, Strain/Indicator: TA100, Metabolic Activation: RAT, LIVER, S-9, PCB, Method: PREINCUBATION", "result": "inactive; negative"}, {"measurement": "mutagenic call", "setting": "Test System: AMES SALMONELLA TYPHIMURIUM, Strain/Indicator: TA1535, Metabolic Activation: HAMSTER, LIVER, S-9, AROCLOR 1254 (10%), Method: PREINCUBATION", "result": "inactive; negative"}, {"measurement": "mutagenic call", "setting": "Test System: AMES SALMONELLA TYPHIMURIUM, Strain/Indicator: TA1535, Metabolic Activation: NONE, Method: PREINCUBATION", "result": "inactive; negative"}, {"measurement": "mutagenic call", "setting": "Test System: AMES SALMONELLA TYPHIMURIUM, Strain/Indicator: TA1535, Metabolic Activation: RAT, LIVER, S-9, AROCLOR 1254 (10%), Method: PREINCUBATION", "result": "inactive; negative"}, {"measurement": "mutagenic call", "setting": "Test System: AMES SALMONELLA TYPHIMURIUM, Strain/Indicator: TA1537, Metabolic Activation: HAMSTER, LIVER, S-9, AROCLOR 1254 (10%), Method: PREINCUBATION", "result": "inactive; negative"}, {"measurement": "mutagenic call", "setting": "Test System: AMES SALMONELLA TYPHIMURIUM, Strain/Indicator: TA1537, Metabolic Activation: NONE, Method: PREINCUBATION", "result": "inactive; negative"}, {"measurement": "mutagenic call", "setting": "Test System: AMES SALMONELLA TYPHIMURIUM, Strain/Indicator: TA1537, Metabolic Activation: RAT, LIVER, S-9, AROCLOR 1254 (10%), Method: PREINCUBATION", "result": "inactive; negative"}]}
{"compound": "O=C(NCc1ccccc1)C(Cl)c1ccccc1", "note": "(stereo unspecified)", "values": [{"measurement": "mutagenic call", "setting": "Test System: AMES SALMONELLA TYPHIMURIUM, Strain/Indicator: TA100, Metabolic Activation: MOUSE, LIVER, S-9, AROCLOR 1254, Method: STANDARD PLATE", "result": "inactive; negative"}, {"measurement": "mutagenic call", "setting": "[1]", "result": "active; positive"}]}
{"compound": "Clc1cccc2cccnc12", "values": [{"measurement": "mutagenic call", "setting": "Test System: AMES SALMONELLA TYPHIMURIUM, Strain/Indicator: TA100, Metabolic Activation: RAT, LIVER, S-9, PHENOBARBITAL AND 5,6-BENZOFLAVONE, Method: PREINCUBATION", "result": "active; positive"}, {"measurement": "mutagenic call", "setting": "Test System: AMES SALMONELLA TYPHIMURIUM, Strain/Indicator: TA100, Metabolic Activation: S-9, Method: PREINCUBATION", "result": "inactive; negative"}]}
{"compound": "ClC[C@H](Br)CBr", "values": [{"measurement": "mutagenic call", "setting": "Test System: AMES SALMONELLA TYPHIMURIUM, Strain/Indicator: TA100, Metabolic Activation: RAT, LIVER, MICROSOMES, Method: PREINCUBATION", "result": "active; positive"}]}
{"compound": "CC(=O)N(C)c1ccc(N=Nc2ccc(N(C)C(C)=O)cc2)cc1", "values": [{"measurement": "mutagenic call", "setting": "Test System: AMES SALMONELLA TYPHIMURIUM, Strain/Indicator: TA98, Metabolic Activation: RAT, LIVER, S-9, POLYCHLORINATED BIPHENYLS, Method: PREINCUBATION", "result": "inactive; negative"}, {"measurement": "mutagenic call", "setting": "Test System: AMES SALMONELLA TYPHIMURIUM, Strain/Indicator: TA100, Metabolic Activation: RAT, LIVER, S-9, POLYCHLORINATED BIPHENYLS, Method: PREINCUBATION", "result": "inactive; negative"}]}
